PMC6839509, “Fluorescent probes towards selective cathepsin B detection and visualization in cancer cells and patient samples” (Chemical Science, 2019)
“And” between values parts separate entries of the source, which are not always exact repeats. Equal values may be shown once. Square brackets hold non-standard residues; d marks the D form. * marks the point of attachment. Phe(4-Cl) = N[C@@H](Cc1ccc(Cl)cc1)C(=O)O; ACC = NC(=O)Cc1cc(=O)oc2cc(N*)ccc12; hPhe = N[C@@H](CCc1ccccc1)C(=O)O; Cha = N[C@@H](CC1CCCCC1)C(=O)O; AMC = Cc1cc(=O)oc2cc(N*)ccc12; hLeu = CC(C)CC[C@H](N)C(=O)O; hSer = N[C@@H](CCO)C(=O)O; Nle = CCCC[C@H](N)C(=O)O; Nva = CCC[C@H](N)C(=O)O; Cbz = O=C(OCc1ccccc1)*; OBn = c1ccc(CO*)cc1; Bn = c1ccc(C*)cc1

Tests used:
Assay in all cases: Substrate hydrolysis kinetics (kcat, KM, kcat/KM) of ACC-labeled substrates
Assay type in all cases: biochemical
[1] = molecular target: T1, human recombinant cathepsin L (Homo sapiens, UniProt P07711); conditions: pH 5.5, 37 °C, S.D. below 15%; for kcat/KM Cat L: cathepsin L 250 nM, Michaelis–Menten, average of at least triplicate; for kcat Cat L / Km: four independent experiments; for Km: read-out: KM Cat L
T1 construct: with a 100 nM final concentration of each active cathepsin for 30 min; made in house
T1 sequence (P07711 114-333): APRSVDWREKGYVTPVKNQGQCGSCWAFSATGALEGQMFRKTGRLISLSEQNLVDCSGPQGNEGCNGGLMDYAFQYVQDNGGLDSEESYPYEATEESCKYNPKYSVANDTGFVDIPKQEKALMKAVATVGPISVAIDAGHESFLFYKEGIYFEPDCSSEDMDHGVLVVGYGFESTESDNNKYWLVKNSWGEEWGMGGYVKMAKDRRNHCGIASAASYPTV
Procedure: (§1) All kinetic experiments were performed using a CLARIOStar (BMG LABTECH) plate reader operating in fluorescence kinetic mode using 96-well plates (Corning®, Costar®). ACC-labeled fluorescent substrates were screened at 355 nm (excitation) and 460 nm (emission) wavelengths (gain 650). The cathepsin assay buffer was composed of 100 mM sodium acetate, 100 mM sodium chloride, 10 mM DTT, 1 mM EDTA, pH 5.5. All kinetic studies were performed at 37 °C.
(§2) The kinetic parameters for all ACC-labeled substrates were determined using Michaelis–Menten kinetic according to the protocol described by Poreba et al.[41] […] All experiments were performed at least in triplicate and the results are presented as average values (S.D. for all tested substrates was below 15%).

[2] = molecular target: T2, human recombinant cathepsin S (Homo sapiens, UniProt P25774); conditions: pH 5.5, 37 °C, S.D. below 15%; for kcat/KM Cat S: cathepsin S 150 nM, Michaelis–Menten, average of at least triplicate; for kcat Cat S / Km: four independent experiments; for Km: read-out: KM Cat S
T2 construct: with a 100 nM final concentration of each active cathepsin for 30 min; made in house
T2 sequence (P25774 115-331): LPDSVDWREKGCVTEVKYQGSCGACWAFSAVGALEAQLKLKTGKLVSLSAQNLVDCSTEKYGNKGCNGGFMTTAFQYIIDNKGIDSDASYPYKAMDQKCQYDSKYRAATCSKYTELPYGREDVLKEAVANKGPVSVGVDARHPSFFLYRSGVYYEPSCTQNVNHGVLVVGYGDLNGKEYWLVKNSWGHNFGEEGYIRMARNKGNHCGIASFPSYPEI
Procedure: as §1, §2

[3] = molecular target: T3, human recombinant cathepsin B (Homo sapiens, UniProt P07858); conditions: for kcat/KM Cat B: cathepsin B 0.3–0.5 nM, 100 mM sodium acetate, 100 mM NaCl, 10 mM DTT, 1 mM EDTA, Michaelis–Menten, average of at least triplicate; for kcat/KM Cat B / kcat Cat B / Km: pH 5.5, 37 °C, S.D. below 15%; for kcat Cat B / Km: four independent experiments; for Km: read-out: KM Cat B
T3 construct: made in house
Procedure: as §1, §2

[4] = molecular target: T4, human recombinant cathepsin V (Homo sapiens, UniProt O60911); conditions: pH 5.5, 37 °C, S.D. below 15%; for kcat/KM Cat V: cathepsin V 200 nM, Michaelis–Menten, average of at least triplicate; for kcat Cat V / Km: four independent experiments; for Km: read-out: KM Cat V
T4 construct: with a 100 nM final concentration of each active cathepsin for 30 min; made in house
T4 sequence (O60911 114-334): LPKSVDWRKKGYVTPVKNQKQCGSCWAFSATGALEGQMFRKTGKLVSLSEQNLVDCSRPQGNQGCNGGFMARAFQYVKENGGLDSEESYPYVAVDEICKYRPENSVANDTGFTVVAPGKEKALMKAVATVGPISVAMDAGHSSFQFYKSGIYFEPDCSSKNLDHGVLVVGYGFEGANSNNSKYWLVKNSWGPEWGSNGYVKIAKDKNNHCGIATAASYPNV
Procedure: as §1, §2

[5] = molecular target: T5, human recombinant cathepsin K (Homo sapiens, UniProt P43235); conditions: pH 5.5, 37 °C, S.D. below 15%; for kcat/KM Cat K: cathepsin K 320 nM, Michaelis–Menten, average of at least triplicate; for kcat Cat K / Km: four independent experiments; for Km: read-out: KM Cat K
T5 construct: with a 100 nM final concentration of each active cathepsin for 30 min; made in house
T5 sequence (P43235 115-329): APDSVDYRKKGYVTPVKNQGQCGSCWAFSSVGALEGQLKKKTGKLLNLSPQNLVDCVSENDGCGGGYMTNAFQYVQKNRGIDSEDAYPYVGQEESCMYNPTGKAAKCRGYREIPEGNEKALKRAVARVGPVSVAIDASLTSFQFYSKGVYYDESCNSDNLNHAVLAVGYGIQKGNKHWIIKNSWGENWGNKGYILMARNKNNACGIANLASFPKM
Procedure: as §1, §2

Substance | kcat/KM Cat L [1] | kcat Cat L [1] [s⁻¹] | Km [1] [µM] | kcat/KM Cat S [2] | kcat Cat S [2] [s⁻¹] | Km [2] [µM] | kcat/KM Cat B [3] | selectivity for cathepsin B in comparison with cathepsin S ([3]; from kcat/KM) | kcat Cat B [3] [s⁻¹] | Km [3] [µM] | kcat/KM Cat V [4] | kcat Cat V [4] [s⁻¹] | Km [4] [µM] | kcat/KM Cat K [5] | kcat Cat K [5] [s⁻¹] | Km [5] [µM] | selectivity for cathepsin B over cathepsin L ([3]; from kcat/KM) [fold]
Ac-[Cha]LE(OBn)R-{ACC} (SMILES CC(=O)N[C@@H](CC1CCCCC1)C(=O)N[C@@H](CC(C)C)C(=O)N[C@@H](CCC(=O)OCc1ccccc1)C(=O)N[C@@H](CCCNC(=N)N)C(=O)Nc1ccc2c(CC(N)=O)cc(=O)oc2c1) | 744 M⁻¹ s⁻¹ | 0.062 | 83.5 | 40 M⁻¹ s⁻¹ | < 0.020 | > 500 | 3,100,000 M^-1s^-1 | ~60 000 fold | 344 | 115 | 949 M⁻¹ s⁻¹ | 0.034 | 35.1 | 14 M⁻¹ s⁻¹ | < 0.007 | > 500 | 
Ac-[Cha]L[hSer](Bn)R-{ACC} (SMILES CC(=O)N[C@@H](CC1CCCCC1)C(=O)N[C@@H](CC(C)C)C(=O)N[C@@H](CCOCc1ccccc1)C(=O)N[C@@H](CCCNC(=N)N)C(=O)Nc1ccc2c(CC(N)=O)cc(=O)oc2c1) [ACC-labeled tetrapeptide substrate] | 1,040 M^-1s^-1 | 0.109 | 105 | 44 M⁻¹ s⁻¹ | < 0.022 | > 500 | 4,300,000 M^-1s^-1 |  | 390 | 90.9 | 518 M⁻¹ s⁻¹ | 0.055 | 109 | 14 M⁻¹ s⁻¹ | < 0.007 | > 500 | 
Ac-[Nva][Cha]E(OBn)R-{ACC} (SMILES CCC[C@H](NC(C)=O)C(=O)N[C@@H](CC1CCCCC1)C(=O)N[C@@H](CCC(=O)OCc1ccccc1)C(=O)N[C@@H](CCCNC(=N)N)C(=O)Nc1ccc2c(CC(N)=O)cc(=O)oc2c1) [ACC-labeled tetrapeptide substrate] | 1,140 M^-1s^-1 |  |  | 37 M⁻¹ s⁻¹ |  |  | 4,090,000 M^-1s^-1 |  |  |  | 1,420 M^-1s^-1 |  |  | 30 M⁻¹ s⁻¹ |  |  | 
Ac-[Phe(4-Cl)]L[hSer](Bn)R-{ACC} (SMILES CC(=O)N[C@@H](Cc1ccc(Cl)cc1)C(=O)N[C@@H](CC(C)C)C(=O)N[C@@H](CCOCc1ccccc1)C(=O)N[C@@H](CCCNC(=N)N)C(=O)Nc1ccc2c(CC(N)=O)cc(=O)oc2c1) [ACC-labeled tetrapeptide substrate] | 1,540 M^-1s^-1 |  |  | 50 M⁻¹ s⁻¹ |  |  | 3,780,000 M^-1s^-1 |  |  |  | 570 M⁻¹ s⁻¹ |  |  | 12 M⁻¹ s⁻¹ |  |  | 
Ac-[hLeu][Nle]E(OBn)R-{ACC} (SMILES CCCC[C@H](NC(=O)[C@H](CCC(C)C)NC(C)=O)C(=O)N[C@@H](CCC(=O)OCc1ccccc1)C(=O)N[C@@H](CCCNC(=N)N)C(=O)Nc1ccc2c(CC(N)=O)cc(=O)oc2c1) [ACC-labeled tetrapeptide substrate] | 1,090 M^-1s^-1 |  |  | 96 M⁻¹ s⁻¹ |  |  | 3,450,000 M^-1s^-1 |  |  |  | 1,180 M^-1s^-1 |  |  | 17 M⁻¹ s⁻¹ |  |  | 
Ac-[hLeu][Nle][hSer](Bn)R-{ACC} (SMILES CCCC[C@H](NC(=O)[C@H](CCC(C)C)NC(C)=O)C(=O)N[C@@H](CCOCc1ccccc1)C(=O)N[C@@H](CCCNC(=N)N)C(=O)Nc1ccc2c(CC(N)=O)cc(=O)oc2c1) [ACC-labeled tetrapeptide substrate] |  |  |  | 65 M⁻¹ s⁻¹ and 39 M⁻¹ s⁻¹ |  |  |  |  |  |  |  |  |  | 16 M⁻¹ s⁻¹ and 19 M⁻¹ s⁻¹ |  |  | 
Ac-[hPhe]LE(OBn)R-{ACC} (SMILES CC(=O)N[C@@H](CCc1ccccc1)C(=O)N[C@@H](CC(C)C)C(=O)N[C@@H](CCC(=O)OCc1ccccc1)C(=O)N[C@@H](CCCNC(=N)N)C(=O)Nc1ccc2c(CC(N)=O)cc(=O)oc2c1) [ACC-labeled tetrapeptide substrate] | 726 M⁻¹ s⁻¹ |  |  | 37 M⁻¹ s⁻¹ |  |  | 2,100,000 M^-1s^-1 |  |  |  | 829 M⁻¹ s⁻¹ |  |  | 12 M⁻¹ s⁻¹ |  |  | 
Cbz-Arg-Arg-{AMC} [reference compound] |  |  |  |  |  |  |  |  |  |  |  |  |  |  |  |  | 17
